# Laboratory results taken from US20040005537A1, “Method of identifying toxic agents using differential gene expression” (priority 2000, published 2004).
# Columns and labels:
# [1] = grouping used to generate the distinguishing gene profiles; cited from earlier work
# rat heart tissue = test: GENECALLING differential gene expression analysis after dosing of serotonin modulating agents; format: in vivo, Sprague Dawley rats
# Experimental: Control animals received sterile water or canola oil. The animals were sacrificed 24 hours following the last dose. Liver tissue was dissected from the animals, and total RNA was recovered from the dissected tissue. cDNA was prepared and the resulting samples were processed through using GENECALLING™ differential expression analysis as described in U.S. Pat. No. 5,871,697 and in Shimkets et al., Nature Biotechnology 17:798-803 (1999). The contents of these patents and publications are incorporated herein by reference in their entirety.
# Thousands of gene fragments were initially found to be differentially expressed in rat heart tissue in response to serotonin modulating agents in. Genes fragments whose expression levels were modulated greater than ±1.5-fold were selected for further analysis.
# Column 6 of Table 1, entitled “Function”, lists the type of classification assigned for the protein, based on its function. The 210 single nucleic acid sequences identified herein, are referred to herein as CARDIOTOX 1-210.
structure (smiles),measurement,setting,value
CNS(=O)(=O)Cc1ccc2[nH]cc(CCN(C)C)c2c1 [sumatriptan],classification as cardiotoxic or noncardiotoxic serotonin modulating agent,[1],noncardiotoxic
same,"Effects on Transcription Level: Novel gene fragment, 524 bp, 86% SI to mouse F-box protein FBX6b [AF176526]",rat heart tissue; CARDIOTOX 1,+1.5 fold
same,"Effects on Transcription Level: Novel gene fragment, 306 bp, 91% SI to mouse low density lipoprotein receptor related protein 4 [AB013874]",rat heart tissue; CARDIOTOX 2,−1.6 fold
same,"Effects on Transcription Level: Novel gene fragment, 540 bp, 97% SI to mouse skeletal muscle alpha-actin [X03766]",rat heart tissue; CARDIOTOX 3,+2.4 fold
same,"Effects on Transcription Level: Novel gene fragment, 80 bp",rat heart tissue; CARDIOTOX 4,−1.4 fold
same,"Effects on Transcription Level: Novel gene fragment, 957 bp, 99% SI to kidney injury associated moleculer HW036 [V80591]",rat heart tissue; CARDIOTOX 5,−1.6 fold
same,"Effects on Transcription Level: Novel gene fragment, 282 bp, 85% SI to human KIAA1515 protein [AB040948]",rat heart tissue; CARDIOTOX 6,−1.7 fold
same,"Effects on Transcription Level: Novel gene fragment, 405 bp, 88% SI to human 2-oxoglutarate dehydrogenase [D10523]",rat heart tissue; CARDIOTOX 7,+1.5 fold
same,Effects on Transcription Level: UCP2,"rat heart tissue; CARDIOTOX 8, GenBank AB010743",−1.6 fold
same,Effects on Transcription Level: Plasma membrane Ca2 + ATPase-isoform 1,"rat heart tissue; CARDIOTOX 9, GenBank J03753",−1.6 fold
same,"Effects on Transcription Level: Novel gene fragment, 242 bp, 97% SI to mouse HSP86 heat-shock protein [X16857]",rat heart tissue; CARDIOTOX 10,+1.4 fold
same,"Effects on Transcription Level: Novel gene fragment, 280 bp, 65% SI to human TRF1-interacting, ankyrin-related ADP-ribose polymerase [AF082556]",rat heart tissue; CARDIOTOX 11,+1.4 fold
same,"Effects on Transcription Level: Novel gene fragment, 348 bp, 88% SI to mouse Sec61 protein complex gamma subunit [U11027]",rat heart tissue; CARDIOTOX 12,+1.3 fold
same,"Effects on Transcription Level: Novel gene fragment 553 bp, 93% SI to mouse Sid329 [AB024984]",rat heart tissue; CARDIOTOX 13,+1.4 fold
same,Effects on Transcription Level: Kruppel-like transcription factor,"rat heart tissue; CARDIOTOX 14, GenBank AB020759",+1.3 fold
same,Effects on Transcription Level: Ribosomal protein L3,"rat heart tissue; CARDIOTOX 15, GenBank X62166",+1.4 fold
same,Effects on Transcription Level: Glucose-regulated protein (GRP) 75,"rat heart tissue; CARDIOTOX 16, GenBank S78556",+1.4 fold
same,Effects on Transcription Level: Immunoglobulin heavy chain binding protein (BiP),"rat heart tissue; CARDIOTOX 17, GenBank M14050",+1.4 fold
same,Effects on Transcription Level: Membrane-spannining proteoglycan NG2,"rat heart tissue; CARDIOTOX 18, GenBank X56541",−1.5 fold
same,"Effects on Transcription Level: Novel gene fragment, 1294 bp, 96% SI to mouse Sui 1 (elF) homolog [AF129888]",rat heart tissue; CARDIOTOX 19,+1.6 fold
same,"Effects on Transcription Level: Novel gene fragment, 723 bp, 85% SI to human translation initiation factor elF3 p40 subunit [U54559]",rat heart tissue; CARDIOTOX 20,+1.6 fold
same,"Effects on Transcription Level: Novel gene fragment, 1324 bp, 76% SI to human flavoprotein subunit of complex II [D30648]",rat heart tissue; CARDIOTOX 21,+1.5 fold
same,"Effects on Transcription Level: Novel gene fragment, 852 bp, 81% SI to human vacuolar proton-ATPase subunit M9.2 [Y15286]",rat heart tissue; CARDIOTOX 22,+1.5 fold
same,"Effects on Transcription Level: Novel gene fragment, 178 bp, 91% SI to mouse myosin light chain-2 isoform MLC-2a [S70785]",rat heart tissue; CARDIOTOX 23,+1.4 fold
same,"Effects on Transcription Level: Novel gene fragment, 167 bp, 90% SI to mouse Rab20 [X80332]",rat heart tissue; CARDIOTOX 24,+1.9 fold
same,"Effects on Transcription Level: Novel gene fragment, 1070 bp, 80% SI to human muscle-specific protein [AF249873]",rat heart tissue; CARDIOTOX 25,+1.5 fold
same,"Effects on Transcription Level: Novel gene fragment, 1143 bp, 82% SI to human sarcoma amplified sequence (SAS) [U01160]",rat heart tissue; CARDIOTOX 26,+1.7 fold
same,"Effects on Transcription Level: Novel gene fragment, 74 bp,75% SI to human secreted protein [X30160] (from patent database)/[X97578] (from patent database)/potential cytokine)",rat heart tissue; CARDIOTOX 27,+1.5 fold
same,"Effects on Transcription Level: Novel gene fragment, 408 bp, 90% SI to human CGI-07 protein [AF132941]",rat heart tissue; CARDIOTOX 28,+1.6 fold
same,"Effects on Transcription Level: Novel gene fragment, 618 bp, 95% SI to rat progression related cDNA, ZNPE-120 3′ end partial sequence [patent database X90805]",rat heart tissue; CARDIOTOX 29,+1.5 fold
same,"Effects on Transcription Level: Novel gene fragment, 717 bp",rat heart tissue; CARDIOTOX 30,+1.5 fold
same,"Effects on Transcription Level: Novel gene fragment, 546 bp",rat heart tissue; CARDIOTOX 31,+1.8 fold
same,"Effects on Transcription Level: Novel gene fragment, 920 bp, 91% SI to human HSPC061 [AF161546]",rat heart tissue; CARDIOTOX 32,+1.5 fold
same,"Effects on Transcription Level: Novel gene fragment, 203 bp, 92% SI to rabbit sarcoplasmic reticulum glycoprotein [J04480]",rat heart tissue; CARDIOTOX 33,−1.7 fold
same,"Effects on Transcription Level: Novel gene fragment, 178 bp, 68% SI to mouse IgG receptor (beta-Fc-gamma-RII)[M63159]",rat heart tissue; CARDIOTOX 34,+1.4 fold
same,Effects on Transcription Level: Ribosomal protein L6,"rat heart tissue; CARDIOTOX 35, GenBank X87107",+1.6 fold
same,Effects on Transcription Level: CAP2 protein (adenylyl cyclase-associated protein 2),"rat heart tissue; CARDIOTOX 36, GenBank U31935",+2.0 fold
same,Effects on Transcription Level: Alpha-platelet-derived growth factor receptor,"rat heart tissue; CARDIOTOX 37, GenBank M63837",+1.6 fold
same,Effects on Transcription Level: Rab GD1 alpha protein,"rat heart tissue; CARDIOTOX 38, GenBank X74402",−1.6 fold
same,Effects on Transcription Level: PKC-zeta-interacting protein,"rat heart tissue; CARDIOTOX 39, GenBank Y08355",+1.6 fold
same,Effects on Transcription Level: ERK or MAP kinase,"rat heart tissue; CARDIOTOX 40, GenBank X65198",+1.5 fold
same,Effects on Transcription Level: Peroxisomal multifunctional enzyme type II,"rat heart tissue; CARDIOTOX 41, GenBank U37486",+1.5 fold
same,Effects on Transcription Level: HBP23 (heme-binding protein 23 kDa),"rat heart tissue; CARDIOTOX 42, GenBank D30035",+1.7 fold
same,Effects on Transcription Level: Caveolae-associated protein,"rat heart tissue; CARDIOTOX 43, GenBank U90725",+3.1 fold
same,Effects on Transcription Level: Prenylated rab acceptor 1 (PRA1),"rat heart tissue; CARDIOTOX 44, GenBank AF025506",+1.5 fold
same,"Effects on Transcription Level: Novel gene fragment, 337 bp, 88% SI to rabbit cardiac ryanodine receptor (RyR-2)[U50465]",rat heart tissue; CARDIOTOX 45,−1.5 fold
same,"Effects on Transcription Level: Novel gene fragment, 81 bp, 85% SI to human titin [X90568]",rat heart tissue; CARDIOTOX 46,−2.2 fold
same,"Effects on Transcription Level: Novel gene fragment, 428 bp, 86% SI to human titin [X90568]",rat heart tissue; CARDIOTOX 47,−2.0 fold
same,"Effects on Transcription Level: Novel gene fragment, 374 bp, 88% SI to human titin [X90568]",rat heart tissue; CARDIOTOX 48,−2.3 fold
same,"Effects on Transcription Level: Novel gene fragment, 428 bp, 85% SI to human titin [90568]",rat heart tissue; CARDIOTOX 49,−2.2 fold
same,"Effects on Transcription Level: Novel gene fragment, 1216 bp, 93% SI to mouse mircotubule-associated protein (MAP) 1B protein [AF115776]",rat heart tissue; CARDIOTOX 50,1 fold
same,"Effects on Transcription Level: Novel gene fragment, 1115 bp, 83% SI to human KIAA0549 protein [AB011121]",rat heart tissue; CARDIOTOX 51,−2.1 fold
same,"Effects on Transcription Level: Novel gene fragment, 153 bp",rat heart tissue; CARDIOTOX 52,−1.7 fold
same,"Effects on Transcription Level: Novel gene fragment, 89 bp, 93% SI to human putative glialblastoma cell differentiation-related protein (GBDR1) [AF068195]",rat heart tissue; CARDIOTOX 53,+1.6 fold
same,Effects on Transcription Level: Rho-associated kinase beta,"rat heart tissue; CARDIOTOX 54, GenBank U61266",−1.10 fold
same,Effects on Transcription Level: Adenylate kinase 3,"rat heart tissue; CARDIOTOX 55, GenBank D13062",+1.5 fold
same,Effects on Transcription Level: Amyloid beta-peptide binding protein,"rat heart tissue; CARDIOTOX 56, GenBank AF049878",+1.5 fold
same,Effects on Transcription Level: Mitochondrial adenine nuleotide translocator,"rat heart tissue; CARDIOTOX 57, GenBank D12771",+1.5 fold
same,"Effects on Transcription Level: Novel gene fragment, 710 bp, 94% SI to mouse chromatin structural protein homolog Supt5 hp (Supt5 h)[U88539]",rat heart tissue; CARDIOTOX 58,+3.0 fold
same,"Effects on Transcription Level: Novel gene fragment, 186 bp, 66% SI to human N-acetylglucosaminyltransferase 1 (GlcNAc-TI)[M55621]",rat heart tissue; CARDIOTOX 60,−1.8 fold
same,"Effects on Transcription Level: Novel gene fragment, 238 bp, 95% SI to mouse MAP kinase-activated protein kinase 2 [X76850]",rat heart tissue; CARDIOTOX 61,−2.7 fold
same,"Effects on Transcription Level: Novel gene fragment, 173 bp, 70% SI to G protein-coupled receptor kinase GRK4 [X97568]",rat heart tissue; CARDIOTOX 62,−6.11 fold
same,"Effects on Transcription Level: Novel gene fragment, 133 bp, 77% SI to human apoptosis related protein hSARP3 [patent database: V19114]",rat heart tissue; CARDIOTOX 63,−3.2 fold
same,"Effects on Transcription Level: Novel gene fragment, 477 bp, 98% SI to peroxisomal phytanoyl-CoA hydroxylase (PHYH) [AF121345]",rat heart tissue; CARDIOTOX 64,+5.1 fold
same,"Effects on Transcription Level: Novel gene fragment, 413 bp, 95% SI to mouse dihydrolipoamide dehydrogenase (Dld) [U73445]",rat heart tissue; CARDIOTOX 65,+1.10 fold
same,"Effects on Transcription Level: Novel gene fragment, 726 bp, 76% SI to human succinate dehydrogenase flavoprotein subunit (SDH) [L21936]",rat heart tissue; CARDIOTOX 66,−4.1 fold
same,"Effects on Transcription Level: Novel gene fragment, 440 bp, 92% SI to mouse cytochrome c oxidase Vllc [X52940]",rat heart tissue; CARDIOTOX 67,+3.7 fold
same,"Effects on Transcription Level: Novel gene fragment, 276 bp, 80% SI to human titin [X90568]",rat heart tissue; CARDIOTOX 68,−11.10 fold
same,"Effects on Transcription Level: Novel gene fragment, 149 bp, 70% SI to human titin [X90568]",rat heart tissue; CARDIOTOX 69,−5.6 fold
same,"Effects on Transcription Level: Novel gene fragment, 467 bp, 94% SI to mouse gelsolin [J04953]",rat heart tissue; CARDIOTOX 70,−3.2 fold
